For orientation: Emax means the size of the effect at its maximum, as opposed to the concentration needed.

Changes are numbered by the printed parent chain. Where two headings read alike, the source gives them in different places. No end group written: not given here.

Assay type in all cases: cell-based
Design in all cases: WT (1–553); expressed in transfected cells; HEK 293T (cAMP)

For one experiment, the target named is T1, GLP-2R W249^ECL1A (Homo sapiens, UniProt O95838, W249A).
T1 sequence (O95838 1-553 W249A): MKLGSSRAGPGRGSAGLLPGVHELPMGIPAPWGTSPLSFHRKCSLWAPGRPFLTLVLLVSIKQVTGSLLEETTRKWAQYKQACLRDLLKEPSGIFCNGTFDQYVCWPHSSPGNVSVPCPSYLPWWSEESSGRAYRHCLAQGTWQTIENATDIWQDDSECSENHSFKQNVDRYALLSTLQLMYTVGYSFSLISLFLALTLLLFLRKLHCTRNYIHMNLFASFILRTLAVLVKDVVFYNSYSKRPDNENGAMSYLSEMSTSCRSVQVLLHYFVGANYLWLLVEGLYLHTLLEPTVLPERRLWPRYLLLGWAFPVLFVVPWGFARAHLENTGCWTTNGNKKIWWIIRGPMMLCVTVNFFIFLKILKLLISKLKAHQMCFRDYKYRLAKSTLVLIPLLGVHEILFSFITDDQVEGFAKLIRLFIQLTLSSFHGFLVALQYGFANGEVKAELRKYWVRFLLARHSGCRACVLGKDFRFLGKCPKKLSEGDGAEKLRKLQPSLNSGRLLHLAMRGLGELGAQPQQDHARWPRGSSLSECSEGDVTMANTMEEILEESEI
Put plainly: cAMP accumulation, W249^ECL1A. The note with it: HEK 293T, 30 min, RT, mean ± SEM, n ≥ 3 in duplicate; for Emax: HEK-293T, read-out: cAMP Emax (% WT); for EC50: read-out: cAMP pEC50 (converted). The method, then: (§1) They were seeded onto 6-well cell culture plates and transiently transfected with different GLP-2R constructs using Lipofectamine 2000 transfection reagent (Invitrogen, Carlsbad, CA, USA). After 24 h, the transfected cells were seeded onto 384-well microtiter plates (3000 cells per well) in HBSS supplemented with 5 mM HEPES, 0.1% (w/v) bovine serum albumin (BSA) and 0.5 mM 3-isobutyl-1- methylxanthine, and stimulated with increasing concentrations of GLP-2 for 30 min at RT. Eu and Ulight were diluted by cAMP detection buffer and added to the plates separately to terminate the reaction. Plates were incubated at RT for 60 min before measuring the fluorescence intensity at 620 nm and […] by an EnVision multilabel plate reader (PerkinElmer, Boston, USA).

In the next experiment the target is T2, GLP-2R N247^ECL1A (Homo sapiens, UniProt O95838, N247A).
T2 sequence (O95838 1-553 N247A): T1 sequence (O95838 1-553 W249A) with N247A, A249W
Kind of experiment: cAMP accumulation, N247^ECL1A. To be noted: Table S5, N247A, HEK 293T, 30 min, RT, mean ± SEM, n ≥ 3 in duplicate; for Emax: read-out: cAMP Emax (% WT); for EC50: read-out: cAMP pEC50 (converted). The method, then:
as §1, with “HEK 293T cells were cultured in Dulbecco’s Modified Eagle’s Medium (DMEM) (Gibco, Waltham, USA) supplemented with 10% (v/v) fetal bovine serum (FBS) (Gibco) and 1% (v/v) sodium pyruvate (Gibco) at 37 °C, 5% CO2 in a humidified incubator. They” for “They”
On the technique in general: Cyclic AMP is a second messenger, typically raised through Gs and lowered through Gi signalling.

For another experiment, the target named is T3, GLP-2R Y252^ECL1A (Homo sapiens, UniProt O95838, Y252A).
T3 sequence (O95838 1-553 Y252A): T1 sequence (O95838 1-553 W249A) with A249W, Y252A
Put plainly: cAMP accumulation, Y252^ECL1A. To be noted: HEK 293T, 30 min, RT, mean ± SEM, n ≥ 3 in duplicate; for Emax: HEK-293T, read-out: cAMP Emax (% WT); for EC50: read-out: cAMP pEC50 (converted). As for the experimental part: as §1

On to `CC[C@H](C)[C@H](NC(=O)[C@H](Cc1ccccc1)NC(=O)[C@H](CC(=O)O)NC(=O)[C@H](CCCNC(=N)N)NC(=O)[C@H](C)NC(=O)[C@H](C)NC(=O)[C@H](CC(C)C)NC(=O)[C@H](CC(N)=O)NC(=O)[C@H](CC(=O)O)NC(=O)[C@H](CC(C)C)NC(=O)[C@@H](NC(=O)[C@@H](NC(=O)[C@H](CC(N)=O)NC(=O)[C@H](CCSC)NC(=O)[C@H](CCC(=O)O)NC(=O)[C@H](CC(=O)O)NC(=O)[C@H](CO)NC(=O)[C@H](Cc1ccccc1)NC(=O)[C@H](CO)NC(=O)CNC(=O)[C@H](CC(=O)O)NC(=O)[C@H](C)NC(=O)[C@@H](N)Cc1c[nH]cn1)[C@@H](C)O)[C@@H](C)CC)C(=O)N[C@@H](CC(N)=O)C(=O)N[C@@H](Cc1c[nH]c2ccccc12)C(=O)N[C@@H](CC(C)C)C(=O)N[C@H](C(=O)N[C@@H](CCC(N)=O)C(=O)N[C@H](C(=O)N[C@@H](CCCCN)C(=O)N[C@H](C(=O)N[C@H](C(=O)N[C@@H](CC(=O)O)C(=O)O)[C@@H](C)O)[C@@H](C)CC)[C@@H](C)O)[C@@H](C)CC` [Human GLP-2 (1–33)], for which the Emax came out at 128 ± 162% at GLP-2R W249^ECL1A (Table S3, W249A); 113 ± 4.1% at GLP-2R W249^ECL1A (Table S5, W249A); 103 ± 1.8% at GLP-2R N247^ECL1A; 103 ± 2.6% at GLP-2R Y252^ECL1A (Table S3, Y252A); 102 ± 2.2% at GLP-2R Y252^ECL1A (Table S5, Y252A).
As for “HADGSFSDEMNTILDNLAAKEFIAWLVKGRG [Chimeric GLP-1/GLP-2 (20-33)]”, the EC50 on GLP-2R W249^ECL1A (Table S5, W249A) is 6310 nM; on GLP-2R N247^ECL1A, 0.0501 nM; at GLP-2R Y252^ECL1A (Table S5, Y252A), 3.98 nM. Besides, the Emax on GLP-2R N247^ECL1A worked out at 103 ± 1.8%; at GLP-2R Y252^ECL1A (Table S5, Y252A), 104 ± 2.1%.
With “HADGSFTSDVSSYLEGQAARDFINWLIQTKITD [Chimeric GLP-1/GLP-2 (7-19)]”, at GLP-2R N247^ECL1A, the Emax came out at 102 ± 2.8% and the EC50 was 1.26 nM. In addition, at GLP-2R Y252^ECL1A (Table S5, Y252A), the Emax turned out to be 106 ± 5.1% and the EC50 was 50.1 nM.
Take “HAEGTFSDEMNTILDNLAARDFINWLIQTKITD [Chimeric GLP-1/GLP-2 (1-6)]”: the EC50 was 1260 nM on GLP-2R W249^ECL1A (Table S5, W249A); 0.0398 nM at GLP-2R N247^ECL1A; 6.31 nM at GLP-2R Y252^ECL1A (Table S5, Y252A). Further, the Emax on GLP-2R N247^ECL1A was 102 ± 1.8%; at GLP-2R Y252^ECL1A (Table S5, Y252A), 103 ± 3.1%.
